Read-outs that look alike come from different tables or passages of the source.
How the values were obtained:
Estrogen Receptor ERα [1] = molecular target: T1, Estrogen Receptor ERα (Homo sapiens, UniProt P03372); experiment: cell-based; details: for ERα activation: at noncytotoxic concentrations; for EC10, ERα (M): 10% of maximum effect of E2; for Efficacy % / EC10 / REPBPA: This Study; for EC10: ERα; for REPBPA: relative estrogenic potency vs BPA; for log(1/EC10) ERα: input of the ToxPi score, values up to 1.00; for SR-ScoreERα: SR-Score, sigma k=1, x=5; for Specificity ratio (SRbaseline) SRERα: against baseline cytotoxicity; for Relative effect potency REPERα: relative to BPA
T1 sequence (P03372 311-547 limits assumed): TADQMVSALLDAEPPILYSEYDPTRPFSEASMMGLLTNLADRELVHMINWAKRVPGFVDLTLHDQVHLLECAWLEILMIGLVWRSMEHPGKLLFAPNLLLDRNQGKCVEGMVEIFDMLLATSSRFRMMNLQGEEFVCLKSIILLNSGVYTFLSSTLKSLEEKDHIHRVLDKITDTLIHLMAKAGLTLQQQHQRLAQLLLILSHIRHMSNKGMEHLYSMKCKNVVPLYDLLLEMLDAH
Procedure, shortened: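 Reporter cells (ERα-UAS-bla GripTite; PPARγ-UAS-bla) grew 24 h at 37 °C, 5% CO₂ in medium containing 2% charcoal-stripped FBS. Cytotoxicity, tracked as IncuCyte confluency, capped data at IC10 for EC10 derivation. Emax% is the fitted log-logistic maximum expressed against the reference chemical's maximum.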

Estrogen Receptor ERα [2] = molecular target: T1, Estrogen Receptor ERα; experiment: aCYP oxidation followed by ERα-UAS-bla GripTite assay (TK-Ratio of effect); assay type: cell-based; details: for EC10, after oxidation / EC10, before oxidation: ERα; for EC10, after oxidation: after abiotic CYP catalyst; for TKERα: TKERα-Ratio
Procedure: Cell culture conditions and bioassay protocols including response detection are provided in Text S2.1–2.4 and Table S3. − Cell viability was determined from cell confluency using an IncuCyte S3 Live-Cell Analysis System (Sartorius AG, Essen, Germany) before and after exposure, except for SH-SY5Y cells (live–dead staining with Nuclear Green LcS1 and propidium iodide, Abcam, UK). For metabolic activation experiments, cell viability was assessed using the ToxBLAzer DualScreen Kit (Thermo Fisher Scientific) to capture the remaining toxicity in ERα-UAS-bla GripTite after treatment with the aCYP catalyst (details in Text S2.4). […]
The TK-Ratio method was used to evaluate the impact of abiotic CYP oxidation on the potency of tested compounds. […]
For experiments with the preceding aCYP activation, ERα cell viability was additionally calculated from the readout of the ToxBLAzer reagent. The ToxBLAzer assay was conducted following the manufacturer's instructions (Thermo Fisher, Waltham, MA, U.S.).13 Fluorescence intensity was recorded at the start of the assay ( Fwavelength(0h)) and after a 2-hour incubation at […]
Cell viability was assessed based on the red fluorescence signal at 665 nm, applying eq. S11 for normalization.
Cell viability = F665nm(2h, sample)-F665nm(0h, average cell-free) (S11) F665nm(2h, average unexposed)-F665nm(0h, average cell-free) […]
the specific endpoint to avoid artifacts from cytotoxicity burst. 15
S2.5: Concentration-response curves (CRCs)
To avoid bias from cytotoxicity burst at higher concentrations, all concentrations exceeding the IC10 for cytotoxicity were excluded in the CRC modeling of effects but otherwise cytotoxicity and effects were fitted with the same model equations (response stands for cytotoxicity or effect). For ERα, AhR, ARE and PPARγ preferably a linear model was fitted to the linear portion of CRC up to maximum 30% effect (eq. S12),16 but in some cases it was necessary to choose a sigmoidal log-concentration-response model, specifically a log-logistic model (eq. S13), to derive effect concentrations and cytotoxicity. For mitochondrial toxicity and neurotoxicity, the […]
are not reporter gene assays. Common practice when using log-logistic models, e.g., the model implemented in tcpl package in R,17, 18 is that the minima and maxima are also fitted and only median effect concentrations AC50 are derived. […]
concentrations (EC10) for both linear and log-sigmoidal CRCs to allow absolute comparisons at the same effect level and for TR and SR -analysis. This was done using the AutomatedBioassayScreening19 published by Braun et al.,20 which also included an algorithm to choose the best model between eq. S12 and eq. S13.
Response (%) = slope × C (S12) […]
logEC =logEC − 1 ∙log (max−min − 100%) (S14)

[3] = Bioassay ERα, dosing range all, linear model fit
[4] = Bioassay ERα, dosing range all, log-logistic model fit
[5] = read-out: Emax%ERα, maximum efficacy relative to E2
[6] = Bioassay ERα, dosing range all, in M
[7] = Bioassay ERα, dosing range all, linear model fit, in M

## CC(C)(c1ccc(O)c(-c2ccccc2)c1)c1ccc(O)c(-c2ccccc2)c1 [BPPH, 2,2-Bis(2-hydroxy-5-biphenylyl)propane]
Estrogen Receptor ERα [1]; [3]
  EC10, linear: no effect
Estrogen Receptor ERα [1]; [4]
  logEC10: no effect
Estrogen Receptor ERα [1]
  ERα activation: did not activate ERα at noncytotoxic concentrations
Estrogen Receptor ERα [1]; [5]
  Emax: 0%

## Oc1ccc(Cc2ccc(O)cc2)cc1 [BPF, Bis(4-hydroxyphenyl)methane]
Estrogen Receptor ERα [1]
  EC10, ERα (M): 9.95 × 10^–7 M
  Efficacy %: 60.05%
  REPBPA: 3.72E-01
  log(1/EC10) ERα: 0.77
Estrogen Receptor ERα [1]; [6]
  EC10, linear transformed: 9.67E-07
Estrogen Receptor ERα [1]; [7]
  EC10, linear: 1.45E-06
Estrogen Receptor ERα [1]; [4]
  logEC10: -6.00
Estrogen Receptor ERα [1]; in M
  EC10: 9.95E-07
Estrogen Receptor ERα [1]; effect
  EC10, ERα: 0.995 µM
Estrogen Receptor ERα [1]; maximum efficacy relative to E2
  Emax%ERα: 60%
Estrogen Receptor ERα [1]; [5]
  Emax: 50 to 60%
Estrogen Receptor ERα [2]; Table S10, in M
  EC10, after oxidation: 1.00E-06
  EC10, before oxidation: 9.67E-07
Estrogen Receptor ERα [2]; Table S10
  TKERα: 0.964
Estrogen Receptor ERα [2]; Table S11, in M
  EC10, after oxidation: 1.36E-06
  EC10, before oxidation: 1.26E-06
Estrogen Receptor ERα [2]; Table S11
  TKERα: 0.93

## CC(C)(c1ccc(OCC2CO2)cc1)c1ccc(OCC2CO2)cc1 (stereo not drawn) [BADGE, Bisphenol A diglycidyl ether]
Estrogen Receptor ERα [1]; [3]
  EC10, linear: no effect
Estrogen Receptor ERα [1]; [4]
  logEC10: no effect
Estrogen Receptor ERα [1]
  ERα activation: did not activate ERα at noncytotoxic concentrations

## Cc1cc(Cc2cc(C)c(O)c(C)c2)cc(C)c1O [TMBPF, Bis(3,5-dimethyl-4-hydroxyphenyl)methane]
Estrogen Receptor ERα [1]; [3]
  EC10, linear: no effect
Estrogen Receptor ERα [1]; [4]
  logEC10: no effect
Estrogen Receptor ERα [1]
  ERα activation: did not activate ERα at noncytotoxic concentrations
Estrogen Receptor ERα [1]; read-out: Emax%ERα
  Emax: 0%

## CC(C)(c1ccc(O)cc1)c1ccc(O)cc1 [BPA, 4,4'-(Propane-2,2-diyl)diphenol, reference compound]
Estrogen Receptor ERα [1]
  EC10, ERα: 0.37 µM
  EC10, ERα (M): 3.70 × 10^–7 M
  SR-ScoreERα: 1.00
  Efficacy %: 37.53%
  REPBPA: 1.00E+00
  Specificity ratio (SRbaseline) SRERα: 31.86
  log(1/EC10) ERα: 0.82
  Relative effect potency REPERα: 1.00
Estrogen Receptor ERα [1]; Bioassay ERα, dosing range high, in M
  EC10, linear transformed: 1.46E-07
Estrogen Receptor ERα [1]; Bioassay ERα, dosing range high, linear model fit, in M
  EC10, linear: 1.81E-07
Estrogen Receptor ERα [1]; Bioassay ERα, dosing range high, log-logistic model fit
  logEC10: -7.06
Estrogen Receptor ERα [1]; Bioassay ERα, dosing range low, in M
  EC10, linear transformed: 3.70E-07
Estrogen Receptor ERα [1]; Bioassay ERα, dosing range low, linear model fit, in M
  EC10, linear: 2.69E-07
Estrogen Receptor ERα [1]; Bioassay ERα, dosing range low, log-logistic model fit
  logEC10: -6.43
Estrogen Receptor ERα [1]; in M
  EC10: 3.70E-07
Estrogen Receptor ERα [1]; effect
  EC10, ERα: 0.37 µM
Estrogen Receptor ERα [1]; human, 24 h
  SRcytotoxicity (ERα): 115
  Specificity ratio (SRcytotoxicity) SRERα: 115.28
Estrogen Receptor ERα [1]; ratio of EC10
  times less potent than the reference estradiol (E2): 18700
Estrogen Receptor ERα [1]; read-out: Emax%ERα
  Emax: 38%
Estrogen Receptor ERα [2]
  estrogenic activity after aCYP oxidation: remained unchanged or decreased
Estrogen Receptor ERα [2]; Table S10, in M
  EC10, after oxidation: 4.48E-07
  EC10, before oxidation: 3.70E-07
Estrogen Receptor ERα [2]; Table S10
  TKERα: 0.827
Estrogen Receptor ERα [2]; Table S11, in M
  EC10, after oxidation: 3.06E-07
  EC10, before oxidation: 3.74E-07
Estrogen Receptor ERα [2]; Table S11
  TKERα: 1.22

## Oc1ccc(Sc2ccc(O)cc2)cc1 [BPT, 4,4'-Thiodiphenol]
Estrogen Receptor ERα [1]
  EC10, ERα (M): 7.27 × 10^–7 M
  SR-ScoreERα: 1.00
  REPBPA: 5.09E-01
  log(1/EC10) ERα: 0.78
Estrogen Receptor ERα [1]; [6]
  EC10, linear transformed: 2.87E-07
Estrogen Receptor ERα [1]; [7]
  EC10, linear: 7.27E-07
Estrogen Receptor ERα [1]; [4]
  logEC10: -6.54
Estrogen Receptor ERα [1]; in M
  EC10: 7.27E-07
Estrogen Receptor ERα [1]; effect
  EC10, ERα: 0.727 µM
Estrogen Receptor ERα [2]; Table S10, in M
  EC10, after oxidation: 1.15E-06
  EC10, before oxidation: 2.87E-07
Estrogen Receptor ERα [2]; Table S10
  TKERα: 0.2502
Estrogen Receptor ERα [2]; Table S11, in M
  EC10, after oxidation: 2.70E-06
  EC10, before oxidation: 2.28E-06
Estrogen Receptor ERα [2]; Table S11
  TKERα: 0.85

## O=S(=O)(c1ccc(O)cc1)c1ccc(OCc2ccccc2)cc1 [BPS-MPE, 4-[4-(benzyloxy)benzenesulfonyl]phenol]
Estrogen Receptor ERα [1]; [3]
  EC10, linear: no effect
Estrogen Receptor ERα [1]; [4]
  logEC10: no effect
Estrogen Receptor ERα [1]
  ERα activation: did not activate ERα at noncytotoxic concentrations

## CC1(C)[C@H](O)C(C)(C)[C@H]1O [t-TMCD, trans-2,2,4,4-Tetramethyl-1,3-cyclobutanediol]
Estrogen Receptor ERα [1]
  EC10, ERα (M): 3.03 × 10^–3 M
  SR-ScoreERα: 0.00922
  Efficacy %: <20%
  REPBPA: 1.22E-04
  Specificity ratio (SRbaseline) SRERα: 0.32
  log(1/EC10) ERα: 0.32
  Relative effect potency REPERα: 0.000122
Estrogen Receptor ERα [1]; EC10,BPA/EC10,BPx
  REPBPA,ERα (relative effect potency in relation to BPA): 1.2 × 10^–4
Estrogen Receptor ERα [1]; in M
  EC10: 3.03E-03
Estrogen Receptor ERα [1]; effect
  EC10, ERα: 3030 µM
Estrogen Receptor ERα [2]; Table S10, in M
  EC10, before oxidation: 3.18E-03

## Cc1ccc(S(=O)(=O)NC(=O)Nc2ccc(Cc3ccc(NC(=O)NS(=O)(=O)c4ccc(C)cc4)cc3)cc2)cc1 [BTUM, 4,4'-Bis(p-tolylsulfonylureido)diphenylmethane]
Estrogen Receptor ERα [1]; [3]
  EC10, linear: no effect
Estrogen Receptor ERα [1]; [4]
  logEC10: no effect
Estrogen Receptor ERα [1]
  ERα activation: did not activate ERα at noncytotoxic concentrations
Estrogen Receptor ERα [2]; Table S10
  EC10, before oxidation: no effect
  EC10, after oxidation: no effect
Estrogen Receptor ERα [2]; both experimental setups
  outcome of aCYP experiments: inconclusive results

## Cc1ccc(S(=O)(=O)NC(=O)Nc2cccc(OS(=O)(=O)c3ccc(C)cc3)c2)cc1 [Pergafast, N-(p-toluenesulfonyl)-N'-(3-(p-toluenesulfonyloxy)phenyl)urea]
Estrogen Receptor ERα [1]; [3]
  EC10, linear: no effect
Estrogen Receptor ERα [1]; [4]
  logEC10: no effect
Estrogen Receptor ERα [1]
  ERα activation: did not activate ERα at noncytotoxic concentrations

## CC1(C)[C@H](O)C(C)(C)[C@H]1O [Trans TMCD]
Estrogen Receptor ERα [1]; ERα bioassay, dosing range all, in M
  EC10, linear transformed: 3.18E-03
Estrogen Receptor ERα [1]; ERα bioassay, dosing range all, linear model, in M
  EC10, linear: 3.03E-03
Estrogen Receptor ERα [1]; ERα bioassay, dosing range all, log-logistic model
  logEC10: -2.47
